In data set [1] the target is T1, human adrenergic receptor (ADR) β2 (Homo sapiens, UniProt P07550).
T1 construct: host or cells: rat chem-1 cells
The data set is described as follows: ADRβ2 activation, Ca2+ influx (Fluo-8) in overexpressing chem-1 cells. Type of data set: cell-based. The conditions noted are these: for ADRβ2 Emax: % of maximal signal obtained by adrenaline, average (95% CI); for EC50: Ca2+ response, chem-1 cells, average (95% confidence interval), 7–9 experiments.

Data set [2] has as its target T2, human adrenergic receptor (ADR) β1 (Homo sapiens, UniProt P08588).
T2 construct: host or cells: rat chem-1 cells
The data set is described as follows: ADRβ1 activation, Ca2+ influx (Fluo-8) in overexpressing chem-1 cells. Type of data set: cell-based. The conditions noted are these: for ADRβ1 Emax: % of maximal signal obtained by adrenaline, average (95% CI); for Emax: Chem-1, read-out: ADRβ1 Emax; for potency at ADRβ1, times less potent than adrenaline: relative to the endogenous agonist adrenaline. The source says: Cells overexpressing human ADRs α1A, α1B, α1D, α2A, α2B, β1 and β2 (Eurofins Discovery Services, St. Charles, MO, USA, product numbers: HTS087RTA, HTS158RTA, HTS216RTA, HTS096RTA, HTS157LRTA, HTS104RTA and HTS073RTA, respectively) were used to study the potency (EC50) and efficacy (Emax) of the selected compounds for these receptors by quantifying Ca^2+ influx upon receptor activation. ADRα1A, α1B, α1D, α2A, β1 and β2 were overexpressed in rat chem-1 cells. ADRα2B was overexpressed in HEK293 cells. The cells were seeded (10,000–50,000 cells/well) in a black 96-well plate (VWR International, Leuven, Belgium) and incubated at 37 °C and 5% CO2 for 24 h. After 24 h, the cells were washed with Hank’s balanced salt solution (HBSS) (Gibco, Paisley, UK) containing 0.35 g/L sodium bicarbonate and incubated with 5 µg/mL Fluo-8 AM in HBSS (pH 7.4) supplemented with 2.5 mM probenecid for 1 h. […] Peak tops of the obtained fluorescence response–time curves were corrected for baseline fluorescence and used to construct concentration–response relationships.
Concentration–response relationships for TAAR1 activation are presented as percentages of the maximal intracellular cAMP level induced by full the TAAR1 agonist phenethylamine and corrected for baseline cAMP accumulation. […] Experiments were run in duplicate in 7–9 independent experiments for ADR and were run in 3–5 independent experiments for TAAR1.

Data set [3] concerns the target T3, human adrenergic receptor (ADR) α1A (Homo sapiens, UniProt P35348).
T3 construct: host or cells: rat chem-1 cells
T3 sequence (P35348 1-466): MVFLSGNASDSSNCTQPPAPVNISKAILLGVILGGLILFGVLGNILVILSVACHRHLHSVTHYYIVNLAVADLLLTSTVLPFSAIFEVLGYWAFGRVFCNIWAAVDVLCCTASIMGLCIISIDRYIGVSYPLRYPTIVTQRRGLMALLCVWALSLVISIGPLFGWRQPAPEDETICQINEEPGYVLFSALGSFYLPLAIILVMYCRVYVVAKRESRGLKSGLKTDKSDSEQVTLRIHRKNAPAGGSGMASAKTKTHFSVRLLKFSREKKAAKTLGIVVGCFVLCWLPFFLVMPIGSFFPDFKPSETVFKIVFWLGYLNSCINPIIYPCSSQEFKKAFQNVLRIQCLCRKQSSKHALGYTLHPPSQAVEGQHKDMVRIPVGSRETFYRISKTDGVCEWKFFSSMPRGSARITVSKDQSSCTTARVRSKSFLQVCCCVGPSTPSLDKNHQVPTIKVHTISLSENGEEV
The data set is described as follows: ADRα1A activation, Ca2+ influx (Fluo-8) in overexpressing chem-1 cells. The settings on record: for ADRα1A Emax: % of maximal signal obtained by adrenaline, average (95% CI); for EC50: Ca2+ response, chem-1 cells, average (95% confidence interval), 7–9 experiments; for Emax: Chem-1. In kind it is cell-based.

Data set [4] concerns the target T4, human adrenergic receptor (ADR) α2A (Homo sapiens, UniProt P08913).
T4 construct: host or cells: rat chem-1 cells
T4 sequence (P08913 1-465): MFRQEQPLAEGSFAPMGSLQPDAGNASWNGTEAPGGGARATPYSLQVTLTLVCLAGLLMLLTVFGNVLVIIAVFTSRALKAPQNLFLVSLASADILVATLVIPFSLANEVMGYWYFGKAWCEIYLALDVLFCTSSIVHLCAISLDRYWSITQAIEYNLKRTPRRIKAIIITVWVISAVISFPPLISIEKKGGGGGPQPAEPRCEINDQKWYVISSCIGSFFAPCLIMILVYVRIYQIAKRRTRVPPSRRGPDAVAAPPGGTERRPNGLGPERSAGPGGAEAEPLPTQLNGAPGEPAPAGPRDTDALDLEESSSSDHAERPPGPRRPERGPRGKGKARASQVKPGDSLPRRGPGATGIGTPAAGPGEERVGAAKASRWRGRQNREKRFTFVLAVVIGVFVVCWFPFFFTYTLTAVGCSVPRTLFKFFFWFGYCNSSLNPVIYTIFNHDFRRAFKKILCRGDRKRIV
The data set is described as follows: ADRα2A activation, Ca2+ influx (Fluo-8) in overexpressing chem-1 cells. In kind it is cell-based. The settings on record: for EC50: Ca2+ response, chem-1 cells, average (95% confidence interval), 7–9 experiments; for potency at ADRα2A, times lower compared to adrenaline: relative to the endogenous agonist adrenaline.

Details of data set [5]: method as in earlier work. The settings on record: humans; ref 47 (Feng et al. 2012); cited from earlier work.
On the set-up of data set [6]: method as in PMID 33227193, PMID 31984737. The settings on record: humans, n = 3, cited from earlier work.

Where two headings read alike, the source gives them in different places. Where only a bound is given, the exact number is not on record here.

T1 sequence (P07550 whole entry): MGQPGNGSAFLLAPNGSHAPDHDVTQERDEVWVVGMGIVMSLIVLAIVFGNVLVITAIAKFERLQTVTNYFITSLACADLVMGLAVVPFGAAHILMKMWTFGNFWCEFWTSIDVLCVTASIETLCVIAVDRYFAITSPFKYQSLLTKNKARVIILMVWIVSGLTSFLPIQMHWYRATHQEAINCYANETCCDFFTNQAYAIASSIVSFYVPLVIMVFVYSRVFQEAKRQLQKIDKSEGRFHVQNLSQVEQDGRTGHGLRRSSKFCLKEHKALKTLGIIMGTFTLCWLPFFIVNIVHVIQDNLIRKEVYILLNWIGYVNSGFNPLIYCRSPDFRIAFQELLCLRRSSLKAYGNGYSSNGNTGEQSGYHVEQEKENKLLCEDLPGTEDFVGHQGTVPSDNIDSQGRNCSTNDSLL
T2 sequence (P08588 whole entry): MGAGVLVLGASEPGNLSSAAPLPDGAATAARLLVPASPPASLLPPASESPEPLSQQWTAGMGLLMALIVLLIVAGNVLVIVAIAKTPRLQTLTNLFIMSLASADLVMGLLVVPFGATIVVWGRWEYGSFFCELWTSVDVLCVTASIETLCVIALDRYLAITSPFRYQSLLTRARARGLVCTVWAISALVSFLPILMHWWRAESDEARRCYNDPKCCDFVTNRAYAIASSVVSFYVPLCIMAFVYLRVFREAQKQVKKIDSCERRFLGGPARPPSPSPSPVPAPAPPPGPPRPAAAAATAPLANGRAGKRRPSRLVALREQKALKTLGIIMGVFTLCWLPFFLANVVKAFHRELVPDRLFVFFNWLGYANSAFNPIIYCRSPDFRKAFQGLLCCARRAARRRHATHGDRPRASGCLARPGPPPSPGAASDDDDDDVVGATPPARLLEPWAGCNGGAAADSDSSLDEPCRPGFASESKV

`CC(C)CC(C)N` (stereo not shown): in data set [1], the “ADRβ2 Emax” value was “-” and the EC50 is greater than 300 µM. Further, in data set [2], the EC50 is greater than 300 µM and the “ADRβ1 Emax” value is “-”. Moreover, in data set [3], the “ADRα1A Emax” value is reported as “-” and the EC50 was greater than 300 µM. Besides, the EC50 in data set [4] was greater than 300 µM.

Consider `CC(C)CCCC(C)N` (stereo not shown), for which, in data set [1], the “ADRβ2 Emax” value is “-” and the EC50 was greater than 300 µM. In data set [2], the EC50 is greater than 300 µM and the “ADRβ1 Emax” value is on record as “-”. Also, in data set [3], the “ADRα1A Emax” value is on record as “-” and the EC50 was greater than 300 µM. The compound further yielded a 50% effective concentration (EC50) in data set [4] greater than 300 µM.

In the case of `CCC(C)CC(C)N` (stereo not shown) [1,3-Dimethylamylamine, 1,3-dimethylamylamine], in data set [1], the “ADRβ2 Emax” value is “-” and the 50% effective concentration (EC50) is greater than 300 µM. In data set [2], the EC50 was greater than 300 µM and the “ADRβ1 Emax” value was “-”. Moreover, in data set [3], the “ADRα1A Emax” value is on record as “-” and the EC50 was greater than 300 µM. Besides, the EC50 in data set [4] was greater than 300 µM.

`CN(C)CCO` [Dimethylaminoethanol, dimethylaminoethanol]: in data set [1], the “ADRβ2 Emax” value is reported as “-” and the EC50 is greater than 300 µM. For the same compound, in data set [2], the EC50 is greater than 300 µM and the “ADRβ1 Emax” value is recorded as “-”. Also, in data set [3], the “ADRα1A Emax” value is recorded as “-” and the 50% effective concentration (EC50) is greater than 300 µM. Besides, the EC50 in data set [4] is greater than 300 µM.

Take `CN(C)CCc1ccccc1` [Dimethylphenethylamine, N,N-dimethylphenethylamine]: in data set [1], the “ADRβ2 Emax” value is listed as “-”. The EC50 in data set [1], in data set [2], in data set [3] and in data set [4] was greater than 300 µM each time. Moreover, the “ADRβ1 Emax” value in data set [2] was “-”. The “ADRα1A Emax” value in data set [3] is on record as “-”.

`CNCC(O)c1ccccc1` (stereo not shown) [Halostachine, halostachine]: the “ADRβ2 Emax” value in data set [1] is “-”. Besides, the EC50 was greater than 300 µM in data set [1], greater than 300 µM in data set [2], 8.7 µM in data set [3] and greater than 300 µM in data set [4]. In addition, the “ADRβ1 Emax” value in data set [2] is “-”. Moreover, the Emax in data set [3] came to 59%.

In the case of `Oc1ccc(CC2NCCc3cc(O)c(O)cc32)cc1` (stereo not shown) [Higenamine, higenamine], the 50% effective concentration (EC50) in data set [1] was 0.47 µM; in data set [2], 0.034 µM; in data set [3] it was greater than 300 µM; in data set [4] it was greater than 300 µM. Besides, the Emax amounted to 31% in data set [1] (Chem-1) and 105% in data set [2]. Also, the “potency at ADRβ2, times less potent than adrenaline” value in data set [1] (relative to the full agonist adrenaline) is “seven”. Also, the maximal plasma concentration in data set [5] is 8.4 nM. Also, the “potency at ADRβ1, times less potent than adrenaline” value in data set [2] is roughly 3 times. Besides, the “ADRα1A Emax” value in data set [3] is listed as “-”.

Take `CN(C)CCc1ccc(O)cc1` [Hordenine, hordenine]: the “ADRβ2 Emax” value in data set [1] is “-”. Besides, the EC50 in data set [1] was greater than 300 µM; in data set [2], greater than 300 µM; in data set [3], greater than 300 µM; in data set [4] it was 690 µM. The Human plasma level in data set [6] (5.5 mg oral dose) is 15 nM; in data set [6] (100 mg oral dose) it was 2.7 nM. Besides, in data set [2], the “ADRβ1 Emax” value is recorded as “-”. In addition, the “ADRα1A Emax” value in data set [3] is “-”. Besides, in data set [4] (% of maximal signal obtained by adrenaline, average (95% CI)), the “ADRα2A Emax” value is 12%. The “potency at ADRα2A, times lower compared to adrenaline” value in data set [4] is given as greater than 12000 times.

Take `CC(C)NCC(O)c1ccc(O)cc1` (stereo not shown) [Isopropyloctopamine, isopropyloctopamine]: the “ADRβ2 Emax” value in data set [1] is on record as “-”. In addition, the EC50 in data set [1], in data set [3] and in data set [4] was greater than 300 µM each time. Besides, the “ADRα1A Emax” value in data set [3] is on record as “-”.

On to `CNC(C)C(O)c1ccc(O)cc1` (stereo not shown) [Methylsynephrine], for which the “ADRβ2 Emax” value in data set [1] is reported as “-”. For the same compound, the EC50 in data set [1] was greater than 300 µM; in data set [2] it was 25 µM; in data set [3], 44 µM; in data set [4], greater than 300 µM. Moreover, the Emax in data set [2] amounted to 75%; in data set [3], 16%. In data set [2], the “potency at ADRβ1, times less potent than adrenaline” value is recorded as “approximately 2500 times”.

With `NCCc1ccccc1` [Phenethylamine, phenethylamine], in data set [1], the “ADRβ2 Emax” value is on record as “-” and the EC50 is greater than 300 µM. Moreover, in data set [2], the concentration for a half-maximal effect (EC50) is greater than 300 µM and the “ADRβ1 Emax” value is “-”. In addition, in data set [3], the “ADRα1A Emax” value was “-” and the 50% effective concentration (EC50) was greater than 300 µM. The compound also gave an EC50 in data set [4] greater than 300 µM.

On to `NCCc1ccc(O)cc1` [Tyramine, tyramine], for which the “ADRβ2 Emax” value in data set [1] is recorded as “-”. Moreover, in data set [3], the “ADRα1A Emax” value is recorded as “-” and the EC50 was greater than 300 µM. Also, in data set [4], the EC50 was greater than 300 µM.

As for `NCC(O)c1ccc(O)cc1` (stereo not shown) [p-Octopamine, p-octopamine], in data set [1], the “ADRβ2 Emax” value is reported as “-”. Besides, the EC50 in data set [1] was greater than 300 µM; in data set [3] it was 11 µM; in data set [4], greater than 300 µM. The same compound had an Emax in data set [3] of 87%.

`CNCC(O)c1ccc(O)cc1` (stereo not shown) [p-Synephrine, p-synephrine]: in data set [1], the “ADRβ2 Emax” value is “-” and the EC50 is greater than 300 µM. In data set [3], this compound showed an EC50 of 2.4 µM and an Emax of 82%. Also, in data set [4], the EC50 is 100 µM and the “potency at ADRα2A, times lower compared to adrenaline” value was greater than 12000 times. For the same compound, the maximal effect (Emax) in data set [4] (Chem-1, % of maximal signal obtained by adrenaline, average (95% CI)) was 89%.

For `CC(CN)c1ccccc1` (stereo not drawn) [β-Methylphenethyl-amine, beta-methylphenethylamine], in data set [1], the “ADRβ2 Emax” value was “-” and the EC50 is greater than 300 µM. Moreover, in data set [2], the EC50 was greater than 300 µM and the “ADRβ1 Emax” value is “-”. In data set [3], the “ADRα1A Emax” value is given as “-” and the 50% effective concentration (EC50) was greater than 300 µM. The compound also displayed a half-maximal effective concentration (EC50) in data set [4] greater than 300 µM.

As a reminder, the EC50 is the concentration at which the effect is half-maximal. Low values mean greater potency, high ones weaker potency. As usually defined, the Emax is the greatest response seen or fitted, relative to the assay's reference.

The record behind these values is article PMC11174489, “In Vitro Activation of Human Adrenergic Receptors and Trace Amine-Associated Receptor 1 by Phenethylamine Analogues Present in Food Supplements” (Nutrients, 2024).
